Assay results published in publication PMC8443696, “Structural determinants and regulation of spontaneous activity in GABAA receptors” (Nature Communications, 2021).
Where “and” joins values, the source holds several entries; their conditions need not be identical. Equal entries are not always repeated. Where two headings read alike, the source gives them in different places.

Columns and labels:
Type in all cases: cell-based, mouse
α4β3δ receptors = target: T1, α4β3δ receptors (UniProt P18506+P63080+Q9D6F4); conditions: for Ispont in the presence of modulator: PS 10 µM (Fig. 6c)
T1 construct: expressed in transfected cells; host or cells: HEK 293
Source text: (§1) All components were obtained from Life Technologies.
(§2) Currents were acquired with Clampex ver.
(§3) Cells were voltage clamped at −40 mV.
(§4) For assessment of the efficacy of allosteric modulators on spontaneous activity, compounds were briefly applied (3–5 s) to achieve steady-state currents (IMod). […] The IMod was summed with IPTX (or subtracted for inhibitory modulators) and the Ispont calculated, as described by Eq. (2):2 Ispont(%)=[(IPTX+IMod)/(IPTX+IMax)]×100……………………………………

α4^Q246Mβ3δ receptors = tested on: T2, α4^Q246Mβ3δ receptors; experiment: Quantification of spontaneous activity (Ispont) in HEK cells, whole-cell patch clamp; conditions: α4Q246Mβ3δ, PS 10 µM (Fig. 6c)
T2 construct: expressed in transfected cells; host or cells: HEK 293
Source text: as §1, §2, §3, §4

α4β3^S409Aδ receptors = tested on: T3, α4β3^S409Aδ receptors; experiment: as above; conditions: α4β3S409Aδ, PS 10 µM (Fig. 6c)
T3 construct: expressed in transfected cells; host or cells: HEK 293
Source text: as §1, §2, §3, §4

α1β3γ2L receptors = tested on: T4, α1β3γ2L receptors; experiment: as above; conditions: α1β3γ2L THIP (Fig. 1d); THIP 3 mM, PTX 100 µM; individual cells
T4 construct: expressed in transfected cells; host or cells: HEK 293
Source text: as §1, §2, §3, §4

α4β2δ receptor = tested on: T5, α4β2δ receptor; experiment: as above
T5 construct: expressed in transfected cells; host or cells: HEK 293
Source text: as §1, §2, §3, §4

α4β3δ GABAARs = tested on: T6, α4β3δ GABAARs; experiment: Single-channel recording of spontaneous currents, outside-out patches of HEK cells; conditions: 100 nM THDOC, absence of GABA, individual patches
T6 construct: expressed in transfected cells; host or cells: HEK cells (outside-out patches)
Procedure: To limit ion channel density in individual patches, HEK cells were transfected with 5 ng α4, β3, δ and eGFP cDNAs. Resulting spontaneous single-channel currents were digitised at a sampling rate of 20 kHz and filtered at 5 kHz with a 4-pole Bessel filter (24 dB per octave). A fixed time resolution of 80 μs was used as a preset. Recordings were undertaken using thick-walled borosilicate patch pipettes (6–10 MΩ) filled with a solution containing (mM): 145 CsCl, 2.5 NaCl, 10 HEPES, 1 EGTA, 4 MgATP, pH 7.3. Osmolarity was 300 ± 20 mOsm/L. Cells were perfused with an external solution consisting of (mM): 145 NaCl, 2.5 KCl, 1 CaCl2, 1 MgCl2, 10 HEPES, 10 glucose, pH 7.3. Prior control recordings were obtained using untransfected HEK cells to identify endogenous channel currents.
Channel currents were digitally low pass filtered at 1–2 kHz prior to analysis. […] Channel dwell states were identified using a threshold cursor method. This state transition detection method for open and shut events was used to assemble an idealised record of the digitised data. Open times affected by channel stacking were not included in the analyses and sub-conductance states were also rare and excluded from the analysis.
The analysis of the dwell times for single-channel currents was performed by fitting a mixture of exponential components to the open time distributions. These defined the mean open times and their relative proportions (area of the components) based on using a Levenberg-Marquardt non-linear least-squares routine (WinEDR ver 3.8.7, courtesy of J Dempster, University of Strathclyde).

T1 sequence (Q9D6F4 36-552): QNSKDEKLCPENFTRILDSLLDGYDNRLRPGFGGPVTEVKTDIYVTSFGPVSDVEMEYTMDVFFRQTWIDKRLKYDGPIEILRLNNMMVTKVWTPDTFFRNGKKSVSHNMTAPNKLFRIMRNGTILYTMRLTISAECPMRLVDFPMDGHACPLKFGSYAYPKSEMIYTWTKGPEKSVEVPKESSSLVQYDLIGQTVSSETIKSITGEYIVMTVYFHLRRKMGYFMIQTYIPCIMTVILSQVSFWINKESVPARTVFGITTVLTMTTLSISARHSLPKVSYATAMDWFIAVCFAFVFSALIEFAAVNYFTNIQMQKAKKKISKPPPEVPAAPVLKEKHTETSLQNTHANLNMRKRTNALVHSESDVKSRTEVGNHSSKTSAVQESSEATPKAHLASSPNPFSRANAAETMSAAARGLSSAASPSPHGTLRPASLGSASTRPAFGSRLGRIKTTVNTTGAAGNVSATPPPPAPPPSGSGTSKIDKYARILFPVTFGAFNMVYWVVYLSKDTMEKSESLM
T1 sequence (P63080 26-473): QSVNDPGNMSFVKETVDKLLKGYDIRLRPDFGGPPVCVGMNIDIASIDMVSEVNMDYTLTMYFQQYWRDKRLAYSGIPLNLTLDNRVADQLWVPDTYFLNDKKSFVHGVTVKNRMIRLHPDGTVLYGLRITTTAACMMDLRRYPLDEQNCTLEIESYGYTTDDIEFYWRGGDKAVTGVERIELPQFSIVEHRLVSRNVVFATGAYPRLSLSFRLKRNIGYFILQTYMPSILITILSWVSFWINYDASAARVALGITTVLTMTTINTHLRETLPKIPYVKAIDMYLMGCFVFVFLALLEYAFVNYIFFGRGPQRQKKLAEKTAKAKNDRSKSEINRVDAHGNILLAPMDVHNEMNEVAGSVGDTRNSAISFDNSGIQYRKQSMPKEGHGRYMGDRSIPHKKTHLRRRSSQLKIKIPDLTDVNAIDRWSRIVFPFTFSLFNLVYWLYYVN
T1 sequence (P18506 25-449): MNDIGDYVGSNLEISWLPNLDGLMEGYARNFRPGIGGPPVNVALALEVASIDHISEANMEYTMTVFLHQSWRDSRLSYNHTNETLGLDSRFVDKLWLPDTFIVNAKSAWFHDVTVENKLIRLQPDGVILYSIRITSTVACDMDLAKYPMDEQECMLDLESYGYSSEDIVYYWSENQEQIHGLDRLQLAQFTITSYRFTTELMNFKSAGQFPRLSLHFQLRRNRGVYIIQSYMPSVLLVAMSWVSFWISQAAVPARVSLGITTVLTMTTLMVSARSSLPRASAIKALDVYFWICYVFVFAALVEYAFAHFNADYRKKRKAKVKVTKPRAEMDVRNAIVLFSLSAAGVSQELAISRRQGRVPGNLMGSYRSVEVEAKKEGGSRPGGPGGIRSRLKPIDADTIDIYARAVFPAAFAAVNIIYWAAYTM

pregnenolone sulphate [Pregnenolone sulfate]
Ispont in the presence of modulator (α4β3δ receptors; α4β3δ): reduced
Ispont in the presence of modulator (α4β3δ receptors; α4β3δ, listed as PS): 5.825% and 4.865% and 6.452% and 3.37% and 4.547% and 9.251% and 6.244% and 4.926%
Ispont in the presence of modulator (α4^Q246Mβ3δ receptors): reduced
Ispont in the presence of modulator (α4^Q246Mβ3δ receptors; listed as PS): 3.665% and 9.322% and 7.162% and 6.1828% and 3.237% and 4.8719% and 4.011%
Ispont in the presence of modulator (α4β3^S409Aδ receptors): reduced
Ispont in the presence of modulator (α4β3^S409Aδ receptors; listed as PS): 0.7651% and 0.3749% and 0.1269% and 0.9165% and 2.143% and 0.1295% and 1.652%

Oc1noc2c1CCNC2 [THIP, 4,5,6,7-tetrahydroisoxazolo[5,4-c]pyridin-3-ol]
Ispont, IMax from THIP (α4β3δ receptors; α4β3δ THIP (Fig. 1d), THIP 3 mM, PTX 100 µM, individual cells): 3.988% and 7.572% and 10.0793% and 6.822% and 17.8571% and 28.6432% and 15.8524%
IMax compared to GABA (α4β3δ receptors; α4β3δ, THIP 3 mM): larger
Ispont, IMax from THIP (α1β3γ2L receptors): 1.055% and 0.4509% and 8.753% and 3.449% and 0.8828% and 1.773%

C[C@]12CC[C@@H](O)C[C@H]1CC[C@@H]1[C@@H]2CC[C@]2(C)[C@@H](C(=O)CO)CC[C@@H]12 [THDOC, tetrahydro-deoxycorticosterone]
Ispont in the presence of modulator (α4β2δ receptor; THDOC 100 nM (Fig. 6b)): 0% and 0.09895% and 0.3365%
Area A1 of open time distribution (row head printed 'thdoc t2', r12) (α4β3δ GABAARs): did not significantly affect
Area A2 of open time distribution (thdoc t2, r14) (α4β3δ GABAARs): did not significantly affect
Area A1 of open time distribution (row head printed 'thdoc t2', r12) (α4β3δ GABAARs; listed as thdoc): 7.49E+01 and 60.19 and 6.51E+01 and 8.65E+01 and 4.84E+01 and 64.73 and 86.6 and 77.97 and 79.7 and 73.6
Area A2 of open time distribution (thdoc t2, r14) (α4β3δ GABAARs; listed as thdoc): 25.1 and 39.81 and 34.92 and 13.51 and 51.6 and 35.27 and 13.4 and 22.03 and 20.3 and 26.4

CC(=O)[C@H]1CC[C@H]2[C@@H]3CC[C@H]4C[C@H](O)CC[C@]4(C)[C@H]3CC[C@]12C [allopregnanolone]
Ispont in the presence of modulator (α4β2δ receptor; AP 100 nM (Fig. 6b), listed as AP): 0% and 0.09895% and 0.3946%
